Test results reported in patent US20090163586A1, “Bis-(Sulfonylamino) Derivatives in Therapy 205” (AstraZeneca AB, priority 2007, published 2009).

target: T1, human mPGES-1 (Homo sapiens, UniProt O14684); assay: Microsomal prostaglandin E synthase biochemical assay; details: microsome preparation containing human mPGES-1; PGH2 10.8 μM, GSH 2.5 mM, pH 6.8; PGE2 by HTRF; average of at least n=2
T1 sequence (O14684 1-152): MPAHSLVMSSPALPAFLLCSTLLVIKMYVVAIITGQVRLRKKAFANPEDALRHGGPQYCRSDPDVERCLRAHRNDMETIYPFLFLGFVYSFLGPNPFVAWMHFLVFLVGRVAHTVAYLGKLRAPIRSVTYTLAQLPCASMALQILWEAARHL
Experimental: Compounds were tested as inhibitors of microsomal prostaglandin E synthase activity in microsomal prostaglandin E synthase assays and whole cell assays. These assays measure prostaglandin E2 (PGE2) synthesis which is taken as a measure of prostaglandin E synthase activity. Microsomal prostaglandin E synthase biochemical assays used microsomal prostaglandin E synthase-1 in microsomal preparations. The source of the microsomes can be for example interleukin-1β-stimulated human A549 cells (which express human mPGES-1) or Sf9 cells transfected with plasmids encoding human mPGES-1 cDNA. The whole blood assay [described by Patrignani, P. et al., Journal of Pharmacology and Experimental Therapeutics, 1994, vol. 271, pp 1705-1712] was used as the whole cell assay for testing the compounds. Whole blood provides a protein and cell rich milieu for the study of biochemical efficacy of anti-inflammatory compounds such as prostaglandin synthase inhibitors. To study the inhibitory activities of these compounds, human blood was stimulated with lipopolysaccharide (LPS) for typically 16 hours to induce mPGES-1 expression, after which the concentration of produced PGE2 was measured by competitive-immuno assay (homogeneous time-resolved fluorescence, HTRF) as read out for effectiveness against mPGES-1-dependent PGE2 production.
Microsomal Prostaglandin E Synthase Biochemical Assay
A solution of test compound was added to a diluted microsome preparation containing human mPGES-1 and pre-incubated for 15 minutes in potassium phosphate buffer pH 6.8 with cofactor glutathione (GSH). Corresponding solutions without test compound were used as positive controls, and corresponding solutions without test compound and without microsomes were used as negative controls. The enzymatic reaction was then started by addition of the substrate PGH2 in an organic solution (dry acetonitrile).
The typical reaction conditions of the enzymatic reaction were thus: Test compound: ranging from 60 μM to 0.002 μM, or zero in positive and negative controls; potassium phosphate buffer pH 6.8: 50 mM; GSH: 2.5 mM; mPGES-1-containing microsomes: 2 μg/mL (sample and positive controls) or 0 μg/mL (negative control); PGH2: 10.8 μM; Acetonitrile: 7.7% (v/v); DMSO: 0.6% (v/v). The reaction was stopped after one minute by adding an acidic solution (pH 1.9) of ferric chloride and citrate (final concentrations 7 mM and 47 mM respectively), by which the PGH2 was sequestered (the PGH2 is reduced to mainly 12-hydroxy heptadecatrineoic acid (12-HHT) which is not detected by the subsequent PGE2 detection step). The resulting solution was then pH neutralized by addition of potassium phosphate buffer, prior to diluting an aliquot of the resulting solution in a weak potassium phosphate buffer (50 mM, pH 6.8) containing 0.2% BSA (w/v). [Adapted from Jacobsson et al., Proc. Natl. Acad. Sci. USA, 1999, vol. 96, pp. 7220-7225]The PGE2 formed was quantified by use of a commercial HTRF based kit (catalogue #62PG2PEC or #62P2APEC from Cisbio International). 100% activity was defined as the PGE2 production in positive controls subtracted by the PGE2 production in the negative controls. IC50 values were then determined using standard procedures.
The potency is expressed as IC50 and the value indicated is an average of at least n=2.

Row | SMILES | IC50 [nM]
1 | NS(=O)(=O)c1ccccc1NS(=O)(=O)CCc1ccc(-c2cc3ccccc3o2)cc1 [Example 1, 2-[2-(4-Benzofuran-2-ylphenyl)ethylsulfonylamino]benzenesulfonamide] | 130
2 | NS(=O)(=O)c1ccccc1NS(=O)(=O)CCc1ccc(C2Cc3ccccc3O2)cc1 (stereo not drawn) [Example 2, 2-[2-[4-(2,3-Dihydrobenzofuran-2-yl)phenyl]ethylsulfonylamino]benzenesulfonamide] | 270
3 | NS(=O)(=O)c1ccccc1NS(=O)(=O)/C=C/c1ccc(-c2cc3ccccc3o2)cc1 [Example 3, 2-[[(E)-2-(4-Benzofuran-2-ylphenyl)ethenyl]sulfonylamino]benzenesulfonamide] | 140
4 | NS(=O)(=O)c1cc(F)ccc1NS(=O)(=O)/C=C/c1ccc(-c2cc3ccccc3o2)cc1 [Example 4, 2-[[(E)-2-(4-Benzofuran-2-ylphenyl)ethenyl]sulfonylamino]-5-fluoro-benzenesulfonamide] | 79
5 | NS(=O)(=O)c1ccc(F)cc1NS(=O)(=O)/C=C/c1ccc(-c2cc3ccccc3o2)cc1 [Example 5, 2-[[(E)-2-(4-Benzofuran-2-ylphenyl)ethenyl]sulfonylamino]-4-fluoro-benzenesulfonamide] | 40
6 | NS(=O)(=O)c1c(F)cccc1NS(=O)(=O)/C=C/c1ccc(-c2cc3ccccc3o2)cc1 [Example 6, 2-[[(E)-2-(4-Benzofuran-2-ylphenyl)ethenyl]sulfonylamino]-6-fluoro-benzenesulfonamide] | 74
7 | CC(Cc1ccc(Cl)cc1)S(=O)(=O)Nc1ccccc1S(N)(=O)=O (stereo not drawn) [Example 7, 2-[1-(4-Chlorophenyl)propan-2-ylsulfonylamino]benzenesulfonamide] | 280
8 | CC(Cc1ccccc1)S(=O)(=O)Nc1ccccc1S(N)(=O)=O (stereo not drawn) [Example 8, 2-(1-Phenylpropan-2-ylsulfonylamino)benzenesulfonamide] | 2200
9 | C/C(=C\c1ccc(Cl)cc1)S(=O)(=O)Nc1ccccc1S(N)(=O)=O [Example 9, 2-[[(E)-1-(4-Chlorophenyl)prop-1-en-2-yl]sulfonylamino]benzenesulfonamide] | 610
10 | CC(Cc1ccc(Cl)cc1)S(=O)(=O)Nc1cc(F)ccc1S(N)(=O)=O (stereo not drawn) [Example 10, 2-[1-(4-Chlorophenyl)propan-2-ylsulfonylamino]-4-fluoro-benzenesulfonamide] | 450
11 | C/C(=C\c1ccc(Cl)cc1)S(=O)(=O)Nc1cc(F)ccc1S(N)(=O)=O [Example 11, 2-[[(E)-1-(4-chlorophenyl)prop-1-en-2-yl]sulfonylamino]-4-fluoro-benzenesulfonamide] | 590
12 | C/C(=C\c1ccc(Cl)cc1)S(=O)(=O)Nc1ccc(F)cc1S(N)(=O)=O [Example 12, 2-[[(E)-1-(4-Chlorophenyl)prop-1-en-2-yl]sulfonylamino]-5-fluoro-benzenesulfonamide] | 1000
13 | C/C(=C\c1ccc(Cl)cc1)S(=O)(=O)Nc1cccc(F)c1S(N)(=O)=O [Example 13, 2-[[(E)-1-(4-Chlorophenyl)prop-1-en-2-yl]sulfonylamino]-6-fluoro-benzenesulfonamide] | 520
14 | C/C(=C\c1ccc(Cl)cc1)S(=O)(=O)Nc1c(F)cccc1S(N)(=O)=O [Example 14, 2-[[(E)-1-(4-Chlorophenyl)prop-1-en-2-yl]sulfonylamino]-3-fluoro-benzenesulfonamide] | 3100
15 | C/C(=C\c1ccc(Cl)cc1)S(=O)(=O)Nc1ccc(C)cc1S(N)(=O)=O [Example 15, 2-[[(E)-1-(4-Chlorophenyl)prop-1-en-2-yl]sulfonylamino]-5-methyl-benzenesulfonamide] | 7600
16 | NS(=O)(=O)c1ccccc1NS(=O)(=O)CCc1ccc(-c2ccco2)cc1 [Example 16, 2-[2-[4-(2-Furyl)phenyl]ethylsulfonylamino]benzenesulfonamide] | 190
17 | NS(=O)(=O)c1ccccc1NS(=O)(=O)CCc1ccc(C2CCCO2)cc1 (stereo not drawn) [Example 17, 2-[2-[4-(Oxolan-2-yl)phenyl]ethylsulfonylamino]benzenesulfonamide] | 5300

Row | SMILES | IC50 [nM]
18 | NS(=O)(=O)c1ccccc1NS(=O)(=O)/C=C/c1ccc(-c2ccco2)cc1 [Example 18, 2-[[(E)-2-[4-(2-Furyl)phenyl]ethenyl]sulfonylamino]benzenesulfonamide] | 44
19 | NS(=O)(=O)c1ccccc1NS(=O)(=O)CCc1ccc(OC(F)F)cc1 [Example 19, 2-[2-[4-(Difluoromethoxy)phenyl]ethylsulfonylamino]benzenesulfonamide] | 1400
20 | NS(=O)(=O)c1ccccc1NS(=O)(=O)/C=C/c1ccc(OC(F)F)cc1 [Example 20, 2-[[(E)-2-[4-(Difluoromethoxy)phenyl]ethenyl]sulfonylamino]benzenesulfonamide] | 700
21 | NS(=O)(=O)c1cc(F)ccc1NS(=O)(=O)CCc1ccc(Cl)cc1 [Example 21, 2-[2-(4-Chlorophenyl)ethylsulfonylamino]-5-fluoro-benzenesulfonamide] | 320
22 | NS(=O)(=O)c1cc(F)ccc1NS(=O)(=O)/C=C/c1ccc(Cl)cc1 [Example 22, 2-[[(E)-2-(4-Chlorophenyl)ethenyl]sulfonylamino]-5-fluoro-benzenesulfonamide] | 430
23 | NS(=O)(=O)c1ccc(F)cc1NS(=O)(=O)/C=C/c1ccc(Cl)c(Cl)c1 [Example 23, 2-[[(E)-2-(3,4-Dichlorophenyl)ethenyl]sulfonylamino]-4-fluoro-benzenesulfonamide] | 270
24 | NS(=O)(=O)c1cc(F)ccc1NS(=O)(=O)/C=C/c1ccc(Cl)c(Cl)c1 [Example 24, 2-[[(E)-2-(3,4-Dichlorophenyl)ethenyl]sulfonylamino]-5-fluoro-benzenesulfonamide] | 300
25 | NS(=O)(=O)c1c(F)cccc1NS(=O)(=O)/C=C/c1ccc(Cl)c(Cl)c1 [Example 25, 2-[[(E)-2-(3,4-Dichlorophenyl)ethenyl]sulfonylamino]-6-fluoro-benzenesulfonamide] | 77
26 | COc1ccc(Br)cc1/C=C/S(=O)(=O)Nc1cc(F)ccc1S(N)(=O)=O [Example 26, 2-[[(E)-2-(5-Bromo-2-methoxy-phenyl)ethenyl]sulfonylamino]-4-fluoro-benzenesulfonamide] | 420
27 | COc1ccc(Br)cc1/C=C/S(=O)(=O)Nc1ccc(F)cc1S(N)(=O)=O [Example 27, 2-[[(E)-2-(5-Bromo-2-methoxy-phenyl)ethenyl]sulfonylamino]-5-fluoro-benzenesulfonamide] | 270
28 | COc1ccc(Br)cc1/C=C/S(=O)(=O)Nc1cccc(F)c1S(N)(=O)=O [Example 28, 2-[[(E)-2-(5-Bromo-2-methoxy-phenyl)ethenyl]sulfonylamino]-6-fluoro-benzenesulfonamide] | 290
29 | COc1ccc(Br)cc1/C=C/S(=O)(=O)Nc1ccccc1S(N)(=O)=O [Example 29, 2-[[(E)-2-(5-Bromo-2-methoxy-phenyl)ethenyl]sulfonylamino]benzenesulfonamide] | 280
30 | N#Cc1ccc(/C=C/S(=O)(=O)Nc2cc(F)ccc2S(N)(=O)=O)cc1 [Example 30, 2-[[(E)-2-(4-Cyanophenyl)ethenyl]sulfonylamino]-4-fluoro-benzenesulfonamide] | 5900
31 | N#Cc1ccc(/C=C/S(=O)(=O)Nc2ccc(F)cc2S(N)(=O)=O)cc1 [Example 31, 2-[[(E)-2-(4-Cyanophenyl)ethenyl]sulfonylamino]-5-fluoro-benzenesulfonamide] | 5700
32 | N#Cc1ccc(/C=C/S(=O)(=O)Nc2cccc(F)c2S(N)(=O)=O)cc1 [Example 32, 2-[[(E)-2-(4-Cyanophenyl)ethenyl]sulfonylamino]-6-fluoro-benzenesulfonamide] | 5100
33 | N#Cc1ccc(/C=C/S(=O)(=O)Nc2ccccc2S(N)(=O)=O)cc1 [Example 33, 2-[[(E)-2-(4-Cyanophenyl)ethenyl]sulfonylamino]benzenesulfonamide] | 1100
